Source: patent US20100105729A1, “ARYL-SUBSTITUTED HETEROCYCLIC PDE4 INHIBITORS AS ANTI-INFLAMMATORY AGENTS” (KALYPSYS, INC., priority 2006, published 2010)

Molecular target: T1, PDE4B (Homo sapiens, UniProt Q07343)
T1 construct: hexa-histidine (His6) (N); made in house
Test: PDE4 IMAP Assay
Type: biochemical
Details: catalytic domain of PDE4B, fluorescence polarization
Excerpt: Compounds may be screened for functional potency in in vitro biochemical assays for their ability to inhibit the activity of phosphodiesterase (PDE) enzymes. A commercial PDE assay, Molecular Device's PDE IMAP assay, was modified and utilized to measure the inhibitory activity of compounds on PDE isoforms. The IMAP technology is based on the high affinity binding of phosphate by immobilized metal (MIII) coordination complexes on nanoparticles. This IMAP “binding reagent” complexes with phosphate groups on the nucleotide monophosphates generated in the reaction. Such binding causes a change in the rate of the molecular motion of the nucleotide, and results in an increase in the fluorescence polarization value observed for the fluorescent label attached to the substrate. PDE inhibitors prevent the generation of nucleotide monophosphates and the subsequent increase in polarization value observed for the fluorescent label attached to the substrate. The catalytic domain of PDE4B was fused to an amino-terminus hex-histadine affinity tag and purified. PDE4B enzyme was incubated with compounds for 10 minutes. Fluorescently labeled cyclic AMP substrates were then added to the PDE enzyme mix and incubated for 2 hours at room temperature. IMAP binding reagent was then added to the enzyme mix, incubated for 10-30 minutes and fluorescent polarization of the fluorescently labeled substrate was read either with the Perkin Elmer Viewlux or Molecular Devices Acquest or Analyst. Roflumilast and Rolipram are the positive controls used in the assay.

T1 sequence (Q07343 330-659 limits assumed, species assumed): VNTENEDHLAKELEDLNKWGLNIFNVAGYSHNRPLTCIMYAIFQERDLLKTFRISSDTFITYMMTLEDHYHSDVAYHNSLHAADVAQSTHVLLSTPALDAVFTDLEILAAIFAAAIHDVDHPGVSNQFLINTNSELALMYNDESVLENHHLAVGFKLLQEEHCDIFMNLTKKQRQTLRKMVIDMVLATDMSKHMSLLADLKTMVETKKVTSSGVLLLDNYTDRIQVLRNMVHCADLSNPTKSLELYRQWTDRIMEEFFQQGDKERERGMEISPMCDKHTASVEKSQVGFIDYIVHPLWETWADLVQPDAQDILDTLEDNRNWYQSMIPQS

Structure (SMILES)	inhibition at 10 µM
COc1ccc(C2=NN(C(=O)CCCC(=O)O)C(c3cccs3)C2)cc1OC (centres unmarked) [Example 1, 5-(3-(3,4-dimethoxyphenyl)-5-(thiophen-2-yl)-4,5-dihydro-1H-pyrazol-1-yl)-5-oxopentanoic acid]	< 50%
COc1ccc(C2=NN(S(C)(=O)=O)C(c3cccs3)C2)cc1OC (centres unmarked) [Example 2, 3-(3,4-dimethoxyphenyl)-1-(methylsulfonyl)-5-(thiophen-2-yl)-4,5-dihydro-1H-pyrazole]	< 50%
COc1ccc(C2=NN(S(C)(=O)=O)C(c3c(F)cccc3Cl)C2)cc1OC (centres unmarked) [Example 3, 5-(2-chloro-6-fluorophenyl)-3-(3,4-dimethoxyphenyl)-1-(methylsulfonyl)-4,5-dihydro-1H-pyrazole]	< 50%
COc1cccc(C2CC(c3ccc(OC)c(OC)c3)=NN2S(C)(=O)=O)c1 (centres unmarked) [Example 4, 3-(3,4-dimethoxyphenyl)-5-(3-methoxyphenyl)-1-(methylsulfonyl)-4,5-dihydro-1H-pyrazole]	< 50%
COc1ccc(C2=NN(C(=O)CCC(=O)O)C(c3cc4cccc(C)c4nc3Cl)C2)cc1OC (centres unmarked) [Example 5, 4-(5-(2-chloro-8-methylquinolin-3-yl)-3-(3,4-dimethoxyphenyl)-4,5-dihydro-1H-pyrazol-1-yl)-4-oxobutanoic acid]	< 50%
COc1ccc2nc(Cl)c(C3CC(c4ccc(OC)c(OC)c4)=NN3C(=O)c3ccccc3Cl)cc2c1 (centres unmarked) [Example 6, (5-(2-chloro-6-methoxyquinolin-3-yl)-3-(3,4-dimethoxyphenyl)-4,5-dihydro-1H-pyrazol-1-yl)(2-chlorophenyl)methanone]	< 50%
COc1ccc2nc(Cl)c(C3CC(c4ccc(OC)c(OC)c4)=NN3C(=O)c3ccccc3)cc2c1 (centres unmarked) [Example 7, (5-(2-chloro-6-methoxyquinolin-3-yl)-3-(3,4-dimethoxyphenyl)-4,5-dihydro-1H-pyrazol-1-yl)(phenyl)methanone]	< 50%
CCC(=O)N1N=C(c2ccc(OC)c(OC)c2)CC1c1cc2cc(OC)ccc2nc1Cl (centres unmarked) [Example 8, 1-(5-(2-chloro-6-methoxyquinolin-3-yl)-3-(3,4-dimethoxyphenyl)-4,5-dihydro-1H-pyrazol-1-yl)propan-1-one]	< 50%
COc1ccc2nc(Cl)c(C3CC(c4ccc(OC)c(OC)c4)=NN3C(=O)c3ccco3)cc2c1 (centres unmarked) [Example 9, (5-(2-chloro-6-methoxyquinolin-3-yl)-3-(3,4-dimethoxyphenyl)-4,5-dihydro-1H-pyrazol-1-yl)(furan-2-yl)methanone]	< 50%
COc1ccc2cc(C3CC(c4ccc(OC)c(OC)c4)=NN3C(=O)c3ccco3)c(Cl)nc2c1 (centres unmarked) [Example 10, (5-(2-chloro-7-methoxyquinolin-3-yl)-3-(3,4-dimethoxyphenyl)-4,5-dihydro-1H-pyrazol-1-yl)(furan-2-yl)methanone]	< 50%
COc1ccc(C2=NN(S(C)(=O)=O)C(c3cccc(OC)c3OC)C2)cc1OC (centres unmarked) [Example 11, 5-(2,3-dimethoxyphenyl)-3-(3,4-dimethoxyphenyl)-1-(methylsulfonyl)-4,5-dihydro-1H-pyrazole]	< 50%
CCc1ccc(C2CC(c3ccc(OC)c(OC)c3)=NN2S(C)(=O)=O)cc1 (centres unmarked) [Example 12, 3-(3,4-dimethoxyphenyl)-5-(4-ethylphenyl)-1-(methylsulfonyl)-4,5-dihydro-1H-pyrazole]	< 50%
COc1ccc(C2=NN(S(C)(=O)=O)C(c3ccc(C)cc3)C2)cc1OC (centres unmarked) [Example 13, 3-(3,4-dimethoxyphenyl)-1-(methylsulfonyl)-5-p-tolyl-4,5-dihydro-1H-pyrazole]	< 50%
COc1ccc(C2CC(c3ccc(OC)c(OC)c3)=NN2S(C)(=O)=O)cc1 (centres unmarked) [Example 14, 3-(3,4-dimethoxyphenyl)-5-(4-methoxyphenyl)-1-(methylsulfonyl)-4,5-dihydro-1H-pyrazole]	< 50%
COc1ccc(C2=NN(S(C)(=O)=O)C(c3ccccc3Cl)C2)cc1OC (centres unmarked) [Example 15, 5-(2-chlorophenyl)-3-(3,4-dimethoxyphenyl)-1-(methylsulfonyl)-4,5-dihydro-1H-pyrazole]	< 50%
COc1ccc2cc(C3CC(c4ccc(OC)c(OC)c4)=NN3C(=O)c3ccccc3Cl)c(Cl)nc2c1 (centres unmarked) [Example 16, (5-(2-chloro-7-methoxyquinolin-3-yl)-3-(3,4-dimethoxyphenyl)-4,5-dihydro-1H-pyrazol-1-yl)(2-chlorophenyl)methanone]	< 50%
COc1ccc2cc(C3CC(c4ccc(OC)c(OC)c4)=NN3C(=O)CCCC(=O)O)c(Cl)nc2c1 (centres unmarked) [Example 17, 5-(5-(2-chloro-7-methoxyquinolin-3-yl)-3-(3,4-dimethoxyphenyl)-4,5-dihydro-1H-pyrazol-1-yl)-5-oxopentanoic acid]	< 50%
CCc1ccc(C2CC(c3ccc(OC)c(OC)c3)=NN2C(=O)CCCC(=O)O)cc1 (centres unmarked) [Example 18, 5-(3-(3,4-dimethoxyphenyl)-5-(4-ethylphenyl)-4,5-dihydro-1H-pyrazol-1-yl)-5-oxopentanoic acid]	< 50%
CCc1ccc(C2CC(c3ccc(OC)c(OC)c3)=NN2C(=O)CCC(=O)O)cc1 (centres unmarked) [Example 19, 4-(3-(3,4-dimethoxyphenyl)-5-(4-ethylphenyl)-4,5-dihydro-1H-pyrazol-1-yl)-4-oxobutanoic acid]	< 50%
CCC(=O)N1N=C(c2ccc(OC)c(OC)c2)CC1c1ccc(CC)cc1 (centres unmarked) [Example 20, 1-(3-(3,4-dimethoxyphenyl)-5-(4-ethylphenyl)-4,5-dihydro-1H-pyrazol-1-yl)propan-1-one]	< 50%
CCc1ccc(C2CC(c3ccc(OC)c(OC)c3)=NN2C(C)=O)cc1 (centres unmarked) [Example 21, 1-(3-(3,4-dimethoxyphenyl)-5-(4-ethylphenyl)-4,5-dihydro-1H-pyrazol-1-yl)ethanone]	< 50%
COc1ccc2cc(C3CC(c4ccc(OC)c(OC)c4)=NN3C(=O)CCC(=O)O)c(Cl)nc2c1 (centres unmarked) [Example 22, 4-(5-(2-chloro-7-methoxyquinolin-3-yl)-3-(3,4-dimethoxyphenyl)-4,5-dihydro-1H-pyrazol-1-yl)-4-oxobutanoic acid]	< 50%
COc1ccc2cc(C3CC(c4ccc(OC)c(OC)c4)=NN3C(C)=O)c(Cl)nc2c1 (centres unmarked) [Example 23, 1-(5-(2-chloro-7-methoxyquinolin-3-yl)-3-(3,4-dimethoxyphenyl)-4,5-dihydro-1H-pyrazol-1-yl)ethanone]	< 50%
COc1ccc(C2=NN(S(=O)(=O)c3ccc(C)cc3)C(c3cn(-c4ccccc4)nc3-c3ccccc3)C2)cc1OC (centres unmarked) [Example 24, 4-(3-(3,4-dimethoxyphenyl)-1-tosyl-4,5-dihydro-1H-pyrazol-5-yl)-1,3-diphenyl-1H-pyrazole]	< 50%
COc1ccc(C2=NN(S(=O)(=O)c3ccccc3)C(c3cn(-c4ccccc4)nc3-c3ccccc3)C2)cc1OC (centres unmarked) [Example 25, 4-(3-(3,4-dimethoxyphenyl)-1-(phenylsulfonyl)-4,5-dihydro-1H-pyrazol-5-yl)-1,3-diphenyl-1H-pyrazole]	< 50%
COc1ccc(C2=NN(C(=O)c3ccccc3Cl)C(c3cn(-c4ccccc4)nc3-c3ccccc3)C2)cc1OC (centres unmarked) [Example 26, (2-chlorophenyl)(3-(3,4-dimethoxyphenyl)-5-(1,3-diphenyl-1H-pyrazol-4-yl)-4,5-dihydro-1H-pyrazol-1-yl)methanone]	< 50%
